Data: patent US20200341000A1, “METHOD OF SCREENING COMPOUNDS FOR TREATING CNS DISORDERS” (SAGE THERAPEUTICS, INC., priority 2017, published 2020)

Legend:
[1] = test system: plasma membrane GABAARs containing the α4 and β3 subunits (S408/9A mutant); experiment: Biotinylation, surface/total GABAAR subunits in hippocampal slices of S408/9A mice; format: cell-based; settings: 100 nM, 20 min
Description: Consistent with the examples above, hippocampal slices from WT and S408/9A mice were treated for 20 min with 100 nM SGE-516 or vehicle (Con) and subjected to biotinylation followed by immunoblotting with β3 and α4 subunit antibodies. The ratio of surface/total (S/T) immunoreactivity was then normalized to levels seen in control (100%).

[2] = test system: GABAA receptor α4 subunit S443 phosphorylation; experiment: Immunoblot of α4 S443 phosphorylation in hippocampal slices; format: cell-based, mice; settings: 100 SGE-516 for 5 min
Description: Treatment of hippocampal slices with SGE-516 increased the phosphorylation of S408/9 measured using pS408/9 antibodies. To produce antibodies specific for phosphorylated S443, rabbits were injected with a synthetic peptide corresponding to residues […] of the murine α4 subunit in which the serine residue corresponding to S443 was chemically phosphorylated; […]. Hippocampal slices were treated with vehicle (Con), or SGE-516 for 20 min. Slices were immunoblotted with pS408/9, β3, or actin antibodies. The ratio of pS408/9/β3 immunoreactivity was then normalized to control slices (100%=the line).
Affinity purified pS443 was used to immunoblot varying concentrations of the immunizing phosphor-peptide (PP). pS443 was used to immunoblot extracts of hippocampal slices treated without preadsorption (0), preadsorbed with the dephosphorylated (DP), or phosphorylated antigen (PP). […] Moreover, the detection of this band was blocked by the phospho- but not the dephospho-antigen (FIG. 7B).
Hippocampal slices were treated with vehicle (Con) or 100 SGE-516 for 5 min and then immunoblotted with pS443 and α4 antibodies as indicated. pS443 immunoreactivity in hippocampal slices was increased by exposure to SGE-516, while total α4 levels were unaffected (FIG. 7C).

In the case of `C[C@@]1(O)CC[C@H]2[C@H](CC[C@@H]3[C@@H]2CC[C@]2(C)[C@@H](C(=O)Cn4nccn4)CC[C@@H]32)C1` [SGE-516], the “increase of plasma membrane levels of GABAARs containing α4 and β3 subunits” value [1] is reported as “not seen”, the pS443 immunoreactivity [2] is reported as “increased” and the “total α4 levels” value [2] is reported as “unaffected”.
